≈ marks a conversion by molar mass, not a printed value. Entries after “also recorded” stand apart in the source; their conditions may differ. Structures can show the parent of a compound that is named as a salt.
How the values were obtained:
[1] = Hygroscopicity by DVS at 25° C. between 0% RH and 95% RH, XRPD after DVS; type: physicochemical; settings: for Water uptake, comparison between forms (in words): DVS at 25° C., 0% RH to 95% RH; for Water uptake (25° C./80% RH): DVS; for Form change after DVS: XRPD after DVS test
Description: DVS was measured via a SMS (Surface Measurement Systems) DVS Intrinsic. The relative humidity at 25° C. were calibrated against deliquescence point of LiCl, Mg(NO3)2 and KCl.
In order to evaluate the hygroscopicity of Compound I free acid Form A and re-prepared salt forms, DVS isotherm plots were collected at 25° C. between 0% RH and 95% RH. XRPD characterization was performed for the samples after DVS test.

[2] = Solid stability, 54 and 91 days (XRPD and HPLC purity); type: physicochemical; settings: 25° C./60% RH or 40° C./75% RH
Description: (§1) The re-prepared choline salt Form A was used for evaluation, including solubility and solid stability. Free acid Form A was selected as comparison for pH solubility and solid stability evaluation.

[3] = Dog pharmacokinetic study after oral administration, plasma by LC-MS/MS; type: in vivo, male Beagle dogs; settings: for Cmax / AUC(0-t) / Tmax: male, Beagle, 30 mg/kg; for Cmax / AUC(0-t): mean; for Cmax: plasma Compound I; for AUC(0-t): t = 24 h; for Tmax: median value or range
Description: The objective of this study was to characterize the pharmacokinetics (PK) of Compound I in male Beagle dogs after oral (P0) administration. The P0 formulation was prepared in capsule or prepared in 0.50% or […] (methyl cellulose) in water at a concentration of 6 mg/mL for oral administration at 30 mg/kg.
LC-MS/MS for the PK studies was carried out using the following instruments/conditions.
Compound I Free acid Form A and Compound I choline salt Form A were formulated as an oral suspension at a target dose concentration of 6 mg/mL in 0.500 or 1% MC in water.
The dose was administered orally by gavage at a target dose volume of 5 mL/kg. Compound I choline salt Form A was also formulated as an oral capsule at a target dose concentration of 30 mg/kg. The formulation was prepared on the day of dosing and stored at room temperature prior to administration. The dose was administered orally by gavage to dogs. Following oral administration, blood samples were collected from […] at pre-dose, 0.083, 0.25, 0.5, 1, 2, 4, 8 and 24 h post dose.
The plasma concentration of Compound I was determined by liquid chromatography with mass spectrometric detection (LC-MS/MS).

[4] = pH buffers
Description: as §1

physchem = settings: thermodynamic from solid
Description: The solubility of starting material (Compound I choline salt Form A) was estimated at room temperature (RT, ˜26° C.). Specifically, approximate 2 mg solid was added into HPLC glass vials. Solvents in Table 5-2 were then added stepwise (50/50/200/700 μL) into the vials until the solids were dissolved or a total volume of 1.0 mL was reached.

[5] = Approximate solubility of Compound I free acid Form A in 14 solvents at RT; type: physicochemical
Description: Approximate solubility of starting material (Compound I free acid Form A) was determined in 14 solvents at RT. Approximately 2 mg of sample was added into a 3-mL glass vial. Solvents in Table 1-3 were then added stepwise into the vials until the solids were dissolved visually or a total volume of 2 mL was reached. Solubility results summarized in Table 1-1 were used to guide the solvent selection in screening experiment design.

[6] = compared to Compound I choline salt Form A

CCOc1cccc(-c2nc3ncc(NS(C)(=O)=O)nc3n2-c2c(OC)cccc2OC)n1 [Compound I choline salt Form A, N-(1-(2,6-dimethoxyphenyl)-2-(6-ethoxypyridin-2-yl)-1H-imidazo[4,5-b]pyrazin-6-yl)methanesulfonamide choline salt Form A]
Water uptake, comparison between forms (in words) [1]: No significant difference
Water uptake (25° C./80% RH) [1]: 3.85%
Form change after DVS [1]: No
Solid stability: form change (XRPD) and HPLC purity [2]: no form change or obvious HPLC purity decrease; also recorded: physically/chemically stable
Solid stability: form change (XRPD) and HPLC purity ([2]; listed as choline salt Form A): no form change or obvious HPLC purity decrease; also recorded: physically/chemically stable
Cmax ([3]; plasma, po, capsule): 11900 ng/mL
AUC(0-t) ([3]; plasma, po, capsule): 145 µg·h/mL
Cmax ([3]; plasma, po, suspension): 73800 ng/mL
AUC(0-t) ([3]; plasma, po, suspension): 1120 µg·h/mL
Tmax ([3]; plasma, po, suspension): 2 to 4 h
Pharmacokinetic profile (in words) ([3]; suspension and capsule): excellent pharmacokinetic profiles
Mean AUClast and Cmax compared with free acid Form A suspension ([3]; suspension or capsule): greater than that of Compound I free acid Form A
pH solubility compared with free acid Form A [4]: higher solubility than free acid Form A
Solubility in certain non-polar solvents (in words) (IPA, acetone, MEK, MIBK, ethyl acetate, isopropyl acetate, MTBE, THF, 2-MeTHF, CHCl3, n-heptane, toluene, DCM, 1,4-dioxane): less soluble
Solubility in polar solvents (in words) (methanol, DMSO, and water): good solubility
solubility (physchem; 1,4-Dioxane, 26 °C, organic solvent or mixture): < 2100 µg/mL
solubility (physchem; 2-Butanol, 26 °C, organic solvent or mixture): < 1800 µg/mL
solubility (physchem; 2-MeTHF, 26 °C, organic solvent or mixture): < 1800 µg/mL
solubility (physchem; ACN, 26 °C, organic solvent or mixture): 7100 to 21400 µg/mL
solubility (physchem; ACN/IPAc (1:1), 26 °C, organic solvent or mixture): < 2100 µg/mL
solubility (physchem; ACN/IPAc (9:1), 26 °C, organic solvent or mixture): 2200 to 7300 µg/mL
solubility (physchem; ACN/Toluene (1:1), 26 °C, organic solvent or mixture): 2100 to 7000 µg/mL
solubility (physchem; ACN/Toluene (9:1), 26 °C, organic solvent or mixture): 6300 to 18800 µg/mL
solubility (physchem; Acetone/H2O (19:1), 26 °C, organic solvent or mixture): 7200 to 21600 µg/mL
solubility (physchem; CHCl3, 26 °C, organic solvent or mixture): < 2100 µg/mL
solubility (physchem; CPME, 26 °C, organic solvent or mixture): < 1800 µg/mL
solubility (physchem; DCM, 26 °C, organic solvent or mixture): < 2100 µg/mL
solubility (physchem; DMF, 26 °C, organic solvent or mixture): 20200 to 40400 µg/mL
solubility (physchem; DMSO, 26 °C, organic solvent or mixture): 18800 to 37600 µg/mL
solubility (physchem; EtOAc, 26 °C, organic solvent or mixture): < 1700 µg/mL
solubility (physchem; EtOH, 26 °C, organic solvent or mixture): 6800 to 20500 µg/mL
solubility (physchem; EtOH/H2O (19:1), 26 °C, organic solvent or mixture): 6600 to 19900 µg/mL
solubility (physchem; IPA/ACN (1:1), 26 °C, organic solvent or mixture): 7000 to 21000 µg/mL
solubility (physchem; IPAc, 26 °C, organic solvent or mixture): < 2000 µg/mL
solubility (physchem; MEK, 26 °C, organic solvent or mixture): < 2000 µg/mL
solubility (physchem; MIBK, 26 °C, organic solvent or mixture): < 2300 µg/mL
solubility (physchem; MTBE, 26 °C, organic solvent or mixture): < 2100 µg/mL
solubility (physchem; MeOH/DCM (1:1), 26 °C, organic solvent or mixture): > 39600 µg/mL
solubility (physchem; MeOH/DCM (1:9), 26 °C, organic solvent or mixture): > 40800 µg/mL
solubility (physchem; MeOH/DCM (1:19), 26 °C, organic solvent or mixture): > 38600 µg/mL
solubility (physchem; THF, 26 °C, organic solvent or mixture): < 1800 µg/mL
solubility (physchem; THF/H2O (19:1), 26 °C, organic solvent or mixture): > 40400 µg/mL
solubility (physchem; acetone, 26 °C, organic solvent or mixture): < 2400 µg/mL
solubility (physchem; isopropanol (IPA), 26 °C, organic solvent or mixture): < 2200 µg/mL
solubility (physchem; methanol, 26 °C, organic solvent or mixture): > 45200 µg/mL
solubility (physchem; n-heptane, 26 °C, organic solvent or mixture): < 2100 µg/mL
solubility (physchem; toluene, 26 °C, organic solvent or mixture): < 2200 µg/mL
solubility (physchem; water, 26 °C): > 43000 µg/mL

CCOc1cccc(-c2nc3ncc(NS(C)(=O)=O)nc3n2-c2c(OC)cccc2OC)n1 [Compound I free acid Form A, N-(1-(2,6-dimethoxyphenyl)-2-(6-ethoxypyridin-2-yl)-1H-imidazo[4,5-b]pyrazin-6-yl)methanesulfonamide]
solubility ([5]; organic solvent or mixture, thermodynamic from solid, 1,4-dioxane): 2000 to 5000 µg/mL (≈ 4.25 to 10.6 mM)
solubility ([5]; organic solvent or mixture, thermodynamic from solid, 2-MeTHF): < 1000 µg/mL
solubility ([5]; organic solvent or mixture, thermodynamic from solid, ACN): 2000 to 5000 µg/mL (≈ 4.25 to 10.6 mM)
solubility ([5]; organic solvent or mixture, thermodynamic from solid, DCM): 5300 to 10500 µg/mL (≈ 11.3 to 22.3 mM)
solubility ([5]; organic solvent or mixture, thermodynamic from solid, EtOAc): < 1000 µg/mL
solubility ([5]; organic solvent or mixture, thermodynamic from solid, EtOH): < 1100 µg/mL
solubility ([5]; organic solvent or mixture, thermodynamic from solid, IPA): < 900 µg/mL
solubility ([5]; organic solvent or mixture, thermodynamic from solid, MTBE): < 900 µg/mL
solubility ([5]; organic solvent or mixture, thermodynamic from solid, MeOH): 1000 to 2100 µg/mL (≈ 2.13 to 4.46 mM)
solubility ([5]; organic solvent or mixture, thermodynamic from solid, THF): 9000 to 18000 µg/mL (≈ 19.1 to 38.3 mM)
solubility ([5]; organic solvent or mixture, thermodynamic from solid, acetone): 2100 to 5200 µg/mL (≈ 4.46 to 11.1 mM)
solubility ([5]; organic solvent or mixture, thermodynamic from solid, n-heptane): < 1300 µg/mL
solubility ([5]; organic solvent or mixture, thermodynamic from solid, toluene): < 800 µg/mL
solubility ([5]; water, thermodynamic from solid, H2O): < 1200 µg/mL
Water uptake, comparison between forms (in words) [1]: lowest water uptake
Water uptake, comparison between forms (in words) ([1]; listed as free acid Form A): lowest water uptake
Water uptake (25° C./80% RH) [1]: 0.03%
Form change after DVS [1]: No
Solid stability: form change (XRPD) and HPLC purity [2]: no form change or obvious HPLC purity decrease
AUC(0-t) ([3]; plasma, suspension): 13.8 µg·h/mL
Tmax ([3]; plasma, suspension): 4 h
Cmax ([3]; suspension): 983 ng/mL

CCOc1cccc(-c2nc3ncc([N-]S(C)(=O)=O)nc3n2-c2c(OC)cccc2OC)n1.[K+] [Compound I potassium salt Form A, N-(1-(2,6-dimethoxyphenyl)-2-(6-ethoxypyridin-2-yl)-1H-imidazo[4,5-b]pyrazin-6-yl)methanesulfonamide potassium salt Form A]
Water uptake, comparison between forms (in words) [1]: No significant difference
Water uptake (25° C./80% RH) [1]: 3.71%
Form change after DVS [1]: No

CCOc1cccc(-c2nc3ncc([N-]S(C)(=O)=O)nc3n2-c2c(OC)cccc2OC)n1.[Na+] [Compound I sodium salt Form A, N-(1-(2,6-dimethoxyphenyl)-2-(6-ethoxypyridin-2-yl)-1H-imidazo[4,5-b]pyrazin-6-yl)methanesulfonamide sodium salt Form A]
Water uptake (25° C./80% RH) [1]: 1.13%
Form change after DVS ([1]; listed as Compound I Na salt Form A): converted to a new form after DVS test; also recorded: form change was observed after DVS
Form change after DVS ([1]; listed as Na salt Form A): Yes*
Hygroscopicity (in words) [1, 6]: exhibited hygroscopicity
Stability after exposure to high humidity (in words) [1, 6]: less stable after exposed to high humidity
